Measurements published in ChEMBL document CHEMBL1147774, “Synthesis of N-benzylated-2-aminoquinolines as ligands for the Tec SH3 domain” (Bioorg Med Chem Lett, 2006).

Molecular target: T1, Tyrosine-protein kinase Tec (Homo sapiens, UniProt P42680)
T1 sequence (P42680 whole entry): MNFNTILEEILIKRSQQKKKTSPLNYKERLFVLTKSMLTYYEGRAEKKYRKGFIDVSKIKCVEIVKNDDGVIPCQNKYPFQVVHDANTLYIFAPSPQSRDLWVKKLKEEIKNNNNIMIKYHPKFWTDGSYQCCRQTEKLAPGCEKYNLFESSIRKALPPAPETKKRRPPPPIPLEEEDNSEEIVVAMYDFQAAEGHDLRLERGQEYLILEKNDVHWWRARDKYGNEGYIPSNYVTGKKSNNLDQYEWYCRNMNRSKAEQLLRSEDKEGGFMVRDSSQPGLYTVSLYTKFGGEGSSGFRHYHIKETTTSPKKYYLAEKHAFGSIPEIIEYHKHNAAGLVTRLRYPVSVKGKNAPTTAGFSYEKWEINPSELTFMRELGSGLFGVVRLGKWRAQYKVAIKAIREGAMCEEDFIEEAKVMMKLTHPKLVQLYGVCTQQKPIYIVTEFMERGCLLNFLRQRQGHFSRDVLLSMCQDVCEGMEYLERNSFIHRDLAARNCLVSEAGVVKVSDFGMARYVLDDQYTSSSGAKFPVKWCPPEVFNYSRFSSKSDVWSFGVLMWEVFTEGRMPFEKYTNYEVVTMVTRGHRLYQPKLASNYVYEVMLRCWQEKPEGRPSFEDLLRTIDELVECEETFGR
Experiment: Binding affinity to Tec SH3 domain

| Compound | Kd |
| --- | --- |
| c1c[nH]c(CNc2ccc3ccccc3n2)c1 | 285 µM |
| Oc1ccc(CNc2ccc3ccccc3n2)cc1 | 292 µM |
| Oc1cccc(CNc2ccc3ccccc3n2)c1 | 234 µM |

The next compounds have a lower Kd than those just listed; values first:

| Kd | Compound |
| --- | --- |
| 208 µM | Fc1ccccc1CNc1ccc2ccccc2n1 |
| 193 µM | c1ccc(CNc2ccc3ccccc3n2)cc1 |
| 177 µM | Fc1cccc(CNc2ccc3ccccc3n2)c1 |
